Three compounds from US9775833B2, “Method for the treatment of NF1- or RAS-associated disorders” (The Trustees of Dartmouth College, priority 2015, dated 2017) can be followed below.

Entries after “also recorded” stand apart in the source; their conditions may differ.

One test has as its system p62/SQSTM-1. The test is described as follows: p62/SQSTM-1 level, western blot and immunofluorescence. In kind it is cell-based, human. The settings on record: U87-MG, 24 h; western blot, immunofluorescent microscopy. The method, then:
U87-MG tumor cells were treated with compound 1 or hydroxychloroquine (an autophagy inhibitor) for 24 h or a cocktail of proteasome inhibitors (bortezomib, BTZ and MG-132) for 2 h. P62 and tubulin levels were determined by western blot.
(§1) U87-MG tumor cells were treated with Y100, hydroxychloroquine (an autophagy inhibitor) or rapamycin (an autophagy inducer) for 24 hours. LC3B-I to LC3-II conversion and tubulin levels were determined by western blot.
Western Blotting. U87-MG cells were plated at a concentration of 500,000 cells per well in a 6-well plate and allowed to adhere overnight. Cells were treated with the noted concentrations and times of controls or compound 1. After treatment, cells were harvested with trypsin, rinsed, and lysed with approximately 75 microliters RIPA buffer with protease and phosphatase inhibitors per 500,000 cells. Protein was quantified with a BCA assay kit (Pierce). 30 micrograms of protein was separated on a 4-15% SDS-PAGE gel (Bio-Rad) by SDS gel electrophoresis. Protein was transferred to a nitrocellulose membrane, blocked with 5% milk in TBST and probed with LC3B (Cell Signaling, 1:1000, overnight), p62/SQSTM-1 (Santa Cruz, 1:1000, 1 h), tubulin (Santa Cruz, 1:10000, 1 h), K63 ubiquitin (Cell Signaling, 1:1000, 1 h), K48 ubiquitin (Cell Signaling, 1:2000, 1 h) in 2% milk in TBST. […]

The next test has as its system LC3B-II. The test is described as follows: LC3B accumulation, western blot and immunofluorescence. To be noted: U87-MG, 24 hours; western blot, immunofluorescent microscopy. It counts as cell-based, human. The method, then:
as §1
(§2) Western Blotting. U87-MG cells were plated at a concentration of 500,000 cells per well in a 6-well plate and allowed to adhere overnight. Cells were treated with the noted concentrations and times of controls or compound 1. After treatment, cells were harvested with trypsin, rinsed, and lysed with approximately 75 microliters RIPA buffer with protease and phosphatase inhibitors per 500,000 cells. Protein was quantified with a BCA assay kit (Pierce). 30 micrograms of protein was separated on a 4-15% SDS-PAGE gel (Bio-Rad) by SDS gel electrophoresis. Protein was transferred to a nitrocellulose membrane, blocked with 5% milk in TBST and probed with LC3B (Cell Signaling, 1:1000, overnight), p62/SQSTM-1 (Santa Cruz, 1:1000, 1 h), tubulin (Santa Cruz, 1:10000, 1 h), K63 ubiquitin (Cell Signaling, 1:1000, 1 h), K48 ubiquitin (Cell Signaling, 1:2000, 1 h) in 2% milk in TBST. Secondary labeling was performed with a one hour incubation in 1:20000 anti-rabbit HRP or 1:10000 anti-mouse HRP (Jackson Immunoresearch) diluted in 2% milk in TBST. Film was then exposed to ECL-coated blots (Pierce) and developed using a standard film processor.

For test [1], the system named is yeast model of NF1 deficiency (IRA2, yeast homolog of human NF1). The experiment in a line: Yeast growth assay, yeast model of NF1 deficiency (OD 600 nm). To be noted: increasing concentrations, 18 hours. In kind it is cell-based, Saccharomyces cerevisiae. On the procedure:
(§3) IRA2 is a yeast homolog of human NF1. Cells were grown in the presence of increasing concentrations of compound 1 for 18 hours. The absorbance (OD 600 nm) was measured as a surrogate marker of cell growth. The assay has been described previously: see Sanchez et al., Mol. Cancer Ther. 2011 Sep.: 10(9):1740-1750.
(§4) IRA2 is a yeast homolog of human NF1. Cells were grown in the presence of increasing concentrations of Y100B for 18 hours. The absorbance (OD 600 nm) was measured as a surrogate marker of cell growth. The assay has been described previously: see Sanchez et al., Mol. Cancer Ther. 2011 Sep.: 10(9):1740-1750.

For another test, the system named is control strains. The experiment in a line: Yeast growth assay, control strains (OD 600 nm). In kind it is cell-based, Saccharomyces cerevisiae. To be noted: increasing concentrations, 18 hours. The method, then:
as §3, §4

The test system of test [2] is NF1-deficient tumor cells (U87-MG). The experiment in a line: alamarBlue viability/growth assay in U87-MG cells. It counts as cell-based, human. On the procedure: Cells were incubated with drug for 15 minutes-72 h. At the noted times, the drug was removed, cells were rinsed with PBS, and replaced with normal media. At 69 hours, 5 uL of alamarBlue viability assay reagent was added to each well. At 72 h, the fluorescence was measured (Ex/Em 544/590 nm) as a surrogate indicator of viability. All values were normalized to the fluorescence observed in a vehicle (DMSO) control.
Cells were incubated with drug for 3 or 7 days. 3 hours before the end of the experiment, 5 uL of alamarBlue viability assay reagent was added to each well. At the end of each timepoint, the fluorescence was measured (Ex/Em 544/590 nm) as a surrogate indicator of viability. All values were normalized to the fluorescence observed in a vehicle (DMSO) control.
Viability Assay. Cells are cultured on plastic 96-well plates. Cell viability is estimated using metabolism as a surrogate marker via the ALAMARBLUE viability/proliferation assay (AbD Serotec; Kidlington, UK) according to the protocol of the manufacturer. The modification of the ALAMARBLUE reagent to a fluorescent substrate is measured with a fluorimeter, after which fluorescent intensity is normalized as a percentage of the vehicle control. Assays are done in triplicate.
Dose Response Assays (Mammalian Cells). To perform drug sensitivity assays, U87-MG cells were plated to 96-well plates at a concentration of 5000 cells/well. After overnight incubation, medium was removed and replaced with 100 μL of medium containing 0-20 uM Compound 1 and DMSO (to normalize DMSO concentrations). In the case of the beta-mercaptoethanol and N-acetyl cysteine co-treatment assays, cells were preincubated with these compounds or a vehicle control for 2 h before being replaced with Y100+/− N-acetyl cysteine, beta-mercaptoethanol or vehicle. Cells were incubated for the noted time with a final 3-hour incubation in 5% AlamarBlue (Thermo Scientific). The plate was scanned at an Ex/Em of 544/590 nm, and fluorescence was normalized to vehicle control wells. Dose-response curves and IC50s were calculated with the Prism 6 software package (GraphPad, San Diego, Calif., USA) by performing a 4-parameter logistic regression with outlier exclusion analysis.
Background: Alamar Blue is a resazurin reagent that responds to reducing activity.

In test [3] the test system is lysine 63 and lysine 48 polyubiquitin linked-proteins. The test is described as follows: K63/K48 polyubiquitin western blot in U87-MG cells. In kind it is cell-based, human. The settings on record: 24 hours, comparable to HCQ (50 uM, 24 h) or MG132 plus bortezomib cocktail. On the procedure:
as §2
For orientation: In western blotting, separated proteins are transferred to a membrane and probed.

The test system is the same in test [4]. The experiment in a line: K63/K48 polyubiquitin western blot in U251-MG cells. It counts as cell-based, human. To be noted: 24 hours, comparable to HCQ (50 uM, 24 h) or MG132 plus bortezomib cocktail.
The test system of test [5] is U87-MG cells. The test is described as follows: Mitochondrial immunofluorescence (Mitotracker Red / TOMM20) in U87-MG cells. It counts as cell-based, human. The settings on record: 24 hours, Mitotracker Red and TOMM20. On the procedure: Polarized mitochondria are labeled with Mitotracker Red, while all mitochondria are labeled with an antibody specific to the mitochondrial protein TOMM20.
Immunofluorescence. U87-MG cells were cultured on poly-D-lysine coated coverslips (Neuvitro Corporation) or poly-L-lysine coated coverslips and treated with Compound 1 (Chembridge) for 24 hours. For the last 30 minutes of treatment, cells were labeled with 100 nM Mitotracker Red (Life Technologies). After treatment and labeling, cells were rinsed with PBS. Cells were fixed in 4% methanol-free paraformaldehyde (Electron Microscopy Services) in PBS (Corning) for 10 minutes at room temperature and blocked with immunofluorescence buffer (2% [v/v] goat serum, 0.2% [v/v] Triton X-100 and 0.05% [w/v] sodium azide in PBS) at RT. TOMM20 was labeled using 1:200 rabbit anti-TOM20 (Santa Cruz) at room temperature for one hour, and cells were rinsed 3 times for 5 minutes with PBST. Secondary labeling was performed with 1:600 goat anti-rabbit F(ab′) 2 DyLight 488 at room temperature for 1 hour (Jackson Immunoresearch) diluted in IF buffer. Cells were then rinsed 2 times for five minutes with PBST and then nuclei were labeled with DAPI in PBS for 5 minutes. Coverslips were mounted on glass slides with ProLong Gold (Life Technologies). […]

A further test relates to U251-MG cells. The experiment in a line: Mitochondrial immunofluorescence (Mitotracker Red / TOMM20) in U251-MG cells. In kind it is cell-based, human. To be noted: Mitotracker Red and TOMM20.
For test [6], the system named is U87-MG cells. The experiment in a line: MitoSOX Red flow cytometry for mitochondrial superoxide. In kind it is cell-based, human. To be noted: 24 h of treatment. The method, then: Flow Cytometry. To determine mitochondrial superoxide levels, 500,000 U87-MG cells/well were plated to a 6-well plate and allowed to adhere overnight. The medium was then replaced with cell culture media containing DMSO or Y100. Cells were treated for 24 hours. 30 minutes before the end of the incubation, 1 micromolar MitoSOX Red was added. At the end of the incubation, cells were rinsed with PBS and trypsinized, and then rinsed two more times. The cells were transferred to flow cytometry tubes and analyzed using a MacsQuant VYB 8-color flow cytometer. MitoSOX Red fluorescence was detected using the Y1-A (PE) channel. 30,000 events per sample were collected. Histograms were generated using the FlowJo flow cytometry analysis software package.

Setting [7] is: ROS scavenger co-treated for 72 hours, alamarBlue.

Take `CCN(CCO)CCCC(C)Nc1ccnc2cc(Cl)ccc12` (stereo not drawn) [hydroxychloroquine]: the “autophagy marker p62/SQSTM-1 (P62 accumulation)” value with p62/SQSTM-1 is recorded as “induces P62 accumulation”. The “LC3B accumulation (LC3B-I to LC3-II conversion)” value in the test on LC3B-II is given as “induces accumulation of the autophagy marker LC3B-II”.
`COC(=O)c1ccc2c3c(onc13)-c1ccccc1C2=O` [compound 2]: the “growth / cell death of NF1-deficient yeast (absorbance OD 600 nm)” value in test [1] is on record as “selectively inhibits growth or induces cell death”. Further, the “growth of control yeast strains (absorbance OD 600 nm)” value in the test with control strains is “without affecting the control strains”. In addition, the “viability and/or growth of U87 MG cells (alamarBlue)” value in test [2] (incubated with drug for 3 or 7 days) is reported as “reduces viability and/or growth”.
Take `CCOC(=O)c1ccc2c3c(onc13)-c1ccccc1C2=O` [compound 1]: in test [1], the “growth / cell death of NF1-deficient yeast (absorbance OD 600 nm)” value was “selectively inhibits growth or induces cell death”. Further, in the test with control strains, the “growth of control yeast strains (absorbance OD 600 nm)” value is given as “without affecting the control strains”. Besides, the “effect on U87-MG cells on co-treatment with N-acetyl cysteine (NAC)” value in [2] (setting [7]) was “abrogate the effect of compound 1”. For the same compound, in [2] (setting [7]), the “effect on U87-MG cells on co-treatment with β-mercaptoethanol” value is “abrogate the effect of compound 1”. Moreover, in test [2] (U87-MG, 3-day alamarBlue assay), the “effect on cell viability/growth on pretreatment and co-treatment with buthionine sulfoximine (BSO)” value is given as “potentiates the effect of compound 1 on cell viability/growth”. In addition, the “drug exposure time giving an irreversible effect on cell viability/growth” value in test [2] (U87-MG, drug removed after 15 minutes-72 h, alamarBlue read at 72 h) is no more than 15 min. Further, in the test on p62/SQSTM-1, the “autophagy marker p62/SQSTM-1 (P62 accumulation)” value is “modulates the autophagy marker and ubiquitin binding scaffold protein p62/SQSTM-1; also recorded: induces P62 accumulation”. Moreover, in the test with LC3B-II, the “LC3B accumulation (LC3B-I to LC3-II conversion)” value is “not LC3B accumulation”. The “accumulation of lysine 63 and lysine 48 polyubiquitin linked-proteins” value in test [3] is “induces the accumulation of lysine 63 and lysine 48 polyubiquitin linked-proteins”; in [4], “induces the accumulation of lysine 63 and lysine 48 polyubiquitin linked-proteins”. In addition, the “formation of polarized mitochondrial hotspots” value in the test with U87-MG cells [5] and in the test with U251-MG cells was “induces the formation of polarized mitochondrial hotspots” throughout. Further, the “formation and/or accumulation of mitochondrial superoxide (MitoSOX Red)” value in the test on U87-MG cells [6] is on record as “induces the formation and/or accumulation of mitochondrial superoxide”.
